US20230309554A1, “Polymer Carriers for Delivery of Agrochemicals in Crop Plants” (Carnegie Mellon University, priority 2020, published 2023)

Assays:
tomato leaves = conditions: in vivo
Description: Tracer loading into star polymers. To load CV into star polymers, 10 mg of star polymer was dissolved into 5 mL of Milli Q water with pH adjusted to 7.5 by adding aliquots of 0.1M HCl and 0.1 M NaOH. 2 mg of CV was added into the star polymer solution and the mixture was vortex mixed for 24 h. The resulting solution was dialyzed against 2 L of Milli Q water for 2 cycles to remove free CV. After dialysis, the sample volume was adjusted to 20 mL to get a 0.5 g L^−1 CV loaded star polymer solution. Spreading agent Silwet L-77 was added into the star polymer solution at 0.1% (v/v) before foliar application. 20 μL of the CV loaded star polymer was applied onto tomato leaves by drop deposition.
This enhanced resolution dark-field microscope system (BX51, Olympus, USA) was equipped with a 150 W halogen light source (Fiber-Lite, Dolan-Jenner, USA) and a hyperspectral camera (CytoViva hyperspectral imaging system 1.4). […] Hyperspectral images were acquired using 100% light source intensity and 0.1 to 0.25 s acquisition per line and corrected for the lamp contribution. […]
RSP uptake and distribution in tomato leaves. RSP interactions with the plant leaf after foliar application was assessed by dark field hyperspectral imaging (DF-HSI) of crystal violet (CV) loaded RSP in tomato leaves. […]

tomato plants = test: Leaf carbon assimilation and chlorophyll fluorescence under combined heat and excess light stress; type: in vivo, Solanum lycopersicum; conditions: after heat and light stress 1.5 h
Description: Plant growth. […] The sterilized seeds were germinated in petri-dish on water-soaked filter paper under dark for 10 days. Afterwards, the seedlings were transplanted to 100 mL plastic cups. Each seedling was grown hydroponically using 1⁄4 strength Hoagland's solution aerated using air pumps. […] Leaf carbon assimilation rate and chlorophyll fluorescence. Plant leaf carbon assimilation and chlorophyll fluorescence was measured by a Li-Cor Li-6800 portable photosynthesis system. […] Combined heat and excess light stress. The carbon (A-Ci) and light response (A-PAR) curves of treated leaves were measured before stress conditions. […] The carbon and light response curves were measured again and compared with the curve acquired before stress. […] Light adapted ([…]) chlorophyll fluorescent test were also performed before and after stress conditions. The A-Ci curves were analyzed according to previously reported model for C3 plants: […]

CN(C)c1ccc(C(=C2C=CC(=[N+](C)C)C=C2)c2ccc(N(C)C)cc2)cc1 [CV, crystal violet]
Location in tomato leaf (tomato leaves): primarily found on the leaf epidermis, with a limited amount inside the mesophyll

[Cl-].[Cl-].[Mg+2] [Mg^2+]
Photosynthesis enhancement compared to control leaves (tomato plants): No significant photosynthesis enhancement
